{"source": "paper PMC6789111", "about": "“Crossing the blood-brain-barrier with nanoligand drug carriers self-assembled from a phage display peptide” (Nature Communications, 2019)", "key": {"[1]": {"assay": "Blood count after intravenous injection", "assay_type": "in vivo, ICR mice", "conditions": "mouse, in vivo, iv", "text": "Supplementary Table 2. Blood count following intravenous injection of FAM-CGY NLCs in free form and complexed with siRNA\nSamples WBC RBC HGB HCT MCV MCH MCHC PLT\nWBC: white blood cell; RBC: red blood cell count; HGB: haemoglobin; HCT: haematocrit; MCV: mean corpuscular volume; MCH: mean corpuscular haemoglobin; MCHC: mean corpuscular\nsignificance (*p < 0.05). The results are mean ± s.d. (n = 3 animals per group). The experiment was repeated twice with identical results. The siRNA represent BACE-1-specific siRNA. The\nfinal concentration of the peptide conjugate was 10 µM and that of siRNA was 48 nM, based on blood volume calculation equivalent to 6% of the body weight. LPS = lipopolysaccharide."}, "Iba-1": {"test_system": "Iba-1", "assay": "ELISA of Iba-1 in hippocampus", "assay_type": "in vivo, ICR mice", "conditions": "Ave."}, "[2]": {"conditions": "mouse, in vivo, iv", "description": "In some experiments, animals were transcardially perfused with 10 mL 0.9% (w/v) saline at a rate of 2 mL min^−1 through the left ventricle to remove the blood from the brain, followed by 20 mL 4% (v/v) paraformaldehyde in phosphate buffered saline (PBS, pH = 7.4). The brain was removed and post-fixed overnight in 4% (v/v) paraformaldehyde followed by dehydration with 30% (w/v) sucrose solution in PBS at 4 °C. Frozen sections were cut on a cryostat (Thermo fisher, USA). […] To visualise neurons, microglial and astrocytes, sections were first stained with antibodies against Tuj1 (1:500), Iba1 (1:300) and GFAP (1:300), respectively, and then with donkey anti-mouse Alexa Fluor®555 (1:1000 dilution) secondary antibody. DAPI staining was performed to visualise cell nuclei."}, "hCMEC/D3 cells": {"test_system": "hCMEC/D3 cells", "assay": "Uptake with internalisation inhibitors", "conditions": "37 °C", "description": "The medium was then removed and replaced with a fresh medium containing NLCs and the corresponding inhibitor. After 8 h of incubation at 37 °C, cells were washed three times with cell medium and analysed by FACS. Cell viability at the end of each experiment was >90% as determined by Trypan Blue exclusion test. The following inhibitors were used: 2-deoxy-D-glucose (1 mM)/sodium azide (1 mM) as energy-dependent inhibitors, worthmanin (10 μM) as macropinocytosis inhibitor, chloropromazine (30 μM) as clathrin-dependent endocytosis inhibitor, N-ethylmaleimide (5 μM) as caveolae-dependent endocytosis and transcytosis inhibitor and indomethacin (200 μM) as caveolae-dependent endocytosis inhibitor."}, "[3]": {"conditions": "mouse, in vivo, iv", "remark": "listed apart in the source", "description": "After 4, 24 and 72 h post injection, mice were sacrificed and perfused with 10 mL 0.9% (w/v) saline at a rate of 2 mL min^−1. Organs (brain, heart, liver, lung, kidney, spleen) were collected for haematoxylin-eosin (H&E) analysis. Tissues were sectioned at a 5 mm thickness. H&E staining was done by submersion in Harris hematoxylin followed by differentiation through 37% HCl and Li2CO3 solution. An Olympus optical microscope (Tokyo, Japan) was used for assessing slides."}}, "note": "Peptide text beside a SMILES is read from it. * marks the point of attachment. 5FAM = O=C1OC2(c3ccc(O)cc3Oc3cc(O)ccc32)c2ccc(C(=O)*)cc21"}
{"compound": "CC[C@H](C)[C@H](NC(=O)[C@H](CC(N)=O)NC(=O)[C@H](Cc1c[nH]cn1)NC(=O)[C@@H](NC(=O)[C@@H]1CCCN1C(=O)[C@H](CCCNC(=N)N)NC(=O)[C@H](Cc1ccc(O)cc1)NC(=O)CNC(=O)[C@H](CS)NC(=O)c1ccc2c(c1)C(=O)OC21c2ccc(O)cc2Oc2cc(O)ccc21)C(C)C)C(=O)N[C@@H](CCCNC(=N)N)C(=O)NCC(=O)N[C@@H](Cc1c[nH]cn1)C(=O)N[C@@H](Cc1c[nH]c2ccccc12)C(=O)N[C@@H](C)C(=O)N1CCC[C@H]1C(=O)NCC(=O)O", "note": "[FAM-CGY] (5FAM-CGYRPVHNIRGHWAPG-OH)", "values": [{"measurement": "WBC", "setting": "[1]", "result": "4.32±0.53 (×109)L-1"}, {"measurement": "effect on blood count", "setting": "[1]", "result": "no effect on blood count"}, {"measurement": "Iba-1 in hippocampus (Figure 6h)", "setting": "Iba-1; 4 h after i.v.", "result": 0.93}, {"measurement": "Iba-1 in hippocampus (Figure 6h)", "setting": "Iba-1; 24 h after i.v. (LPS 24 h)", "result": 1.02}, {"measurement": "Iba-1 in hippocampus (Figure 6h)", "setting": "Iba-1; 72 h after i.v.", "result": 0.96}, {"measurement": "association with brain parenchymal cells", "setting": "[2]", "result": "neurons and microglial cells, but not with astrocytes"}, {"measurement": "Mean flouresence (%), uptake vs Control (no inhibitor)", "setting": "hCMEC/D3 cells; CPZ (chloropromazine 30 μM), 8 h, replicate 1", "result": 50.26, "unit": "%"}, {"measurement": "Mean flouresence (%), uptake vs Control (no inhibitor)", "setting": "hCMEC/D3 cells; CPZ (chloropromazine 30 μM), 8 h, replicate 2", "result": 42.26, "unit": "%"}, {"measurement": "Mean flouresence (%), uptake vs Control (no inhibitor)", "setting": "hCMEC/D3 cells; CPZ (chloropromazine 30 μM), 8 h, replicate 3", "result": 56.45, "unit": "%"}, {"measurement": "Mean flouresence (%), uptake vs Control (no inhibitor)", "setting": "hCMEC/D3 cells; DOG+NaN3 (1 mM/1 mM), 8 h, replicate 2", "result": 62.26, "unit": "%"}, {"measurement": "Mean flouresence (%), uptake vs Control (no inhibitor)", "setting": "hCMEC/D3 cells; DOG+NaN3 (1 mM/1 mM), 8 h, replicate 3", "result": 36.09, "unit": "%"}, {"measurement": "Mean flouresence (%), uptake vs Control (no inhibitor)", "setting": "hCMEC/D3 cells; DOG+NaN3 (2-deoxy-D-glucose 1 mM/sodium azide 1 mM), 8 h, replicate 1", "result": 44.27, "unit": "%"}, {"measurement": "Mean flouresence (%), uptake vs Control (no inhibitor)", "setting": "hCMEC/D3 cells; IMC (indomethacin 200 μM), 1 h pre-treatment + 8 h, FACS, FAM-CGY NLC 5 µM or Texas Red-transferrin 5 µg per well, replicate 1", "result": 66.27, "unit": "%"}, {"measurement": "Mean flouresence (%), uptake vs Control (no inhibitor)", "setting": "hCMEC/D3 cells; IMC (indomethacin 200 μM), 8 h, replicate 2", "result": 72.37, "unit": "%"}, {"measurement": "Mean flouresence (%), uptake vs Control (no inhibitor)", "setting": "hCMEC/D3 cells; IMC (indomethacin 200 μM), 8 h, replicate 3", "result": 72.43, "unit": "%"}, {"measurement": "Mean flouresence (%), uptake vs Control (no inhibitor)", "setting": "hCMEC/D3 cells; NEM (N-ethylmaleimide 5 μM), 8 h, replicate 1", "result": 56.24, "unit": "%"}, {"measurement": "Mean flouresence (%), uptake vs Control (no inhibitor)", "setting": "hCMEC/D3 cells; NEM (N-ethylmaleimide 5 μM), 8 h, replicate 2", "result": 70.26, "unit": "%"}, {"measurement": "Mean flouresence (%), uptake vs Control (no inhibitor)", "setting": "hCMEC/D3 cells; NEM (N-ethylmaleimide 5 μM), 8 h, replicate 3", "result": 66.59, "unit": "%"}, {"measurement": "Mean flouresence (%), uptake vs Control (no inhibitor)", "setting": "hCMEC/D3 cells; WOR (worthmanin 10 μM), 8 h, replicate 1", "result": 73.57, "unit": "%"}, {"measurement": "Mean flouresence (%), uptake vs Control (no inhibitor)", "setting": "hCMEC/D3 cells; WOR (worthmanin 10 μM), 8 h, replicate 2", "result": 75.56, "unit": "%"}, {"measurement": "Mean flouresence (%), uptake vs Control (no inhibitor)", "setting": "hCMEC/D3 cells; WOR (worthmanin 10 μM), 8 h, replicate 3", "result": 60.92, "unit": "%"}, {"measurement": "histology of liver, kidneys, heart, lungs, spleen", "setting": "[3]", "result": "no adverse morphological changes and inflammatory reactions"}]}
